Assay results: patent US7531668B2, “2-arylcarboxamide-nitrogenous heterocycle compound” (Banyu Pharmaceutical Co., Ltd., priority 2004, dated 2009)
Counter-ions that a name gives are not always drawn.

Molecular target: T1, human MCH-1R (Homo sapiens, UniProt Q99705)
T1 construct: expressed in transfected cells; host or cells: CHO-K1 (American Type Culture Collection), vector pEF/mic/cyto (Invitrogen)
Experiment: MCH binding inhibition test ([125I]MCH binding to membranes of MCH-1R expressing CHO-K1 cells)
Conditions: 50% inhibition concentration to the specific [125I]MCH binding; 50 pM [125I]MCH, membranes of MCH-1R expression CHO-K1 cells, 25° C., one hour, pH 7.4
Description: Pharmacological Test Example 1 (MCH Binding Inhibition Test)
A human MCH-1R encoding cDNA sequence [FEBS Letters, Vol. 398, 253 (1996); Biochimica et Biophisica Acta, Vol. 1401, 216 (1998)] was cloned to a plasmid vector pEF/mic/cyto (Invitrogen Corporation). The obtained expression vector was transfected to host cells CHO-K1 (American Type Culture Collection) using Lipofectamine Plus Reagent (Life Technology Inc.) to provide MCH-1R expression cells.
Membrane samples prepared from the MCH-1R expression cells were incubated with each test compound and 50 pM of [^125I]MCH (NEN Co.), in an assay buffer (50 mM Tris buffer comprising 10 mM magnesium chloride, 2 mM ethylenediamine tetraacetate, 0.01% bacitracin and 0.2% bovine serum albumin; pH 7.4) at 25° C. for an hour, followed by filtration through a glass filter GF/C (Wattman Co.). After washing the glass filter with 50 mM Tris buffer (pH 7.4) comprising 10 mM magnesium chloride, 2 mM ethylenediamine tetraacetate and 0.04% Tween-20, the radioactive activity on the glass filter was measured. The non-specific binding was measured in the presence of 1 μM human MCH and 50% inhibition concentration (IC50 value) of each test compound to the specific [^125I,]MCH binding was determined.

T1 sequence (Q99705 whole entry): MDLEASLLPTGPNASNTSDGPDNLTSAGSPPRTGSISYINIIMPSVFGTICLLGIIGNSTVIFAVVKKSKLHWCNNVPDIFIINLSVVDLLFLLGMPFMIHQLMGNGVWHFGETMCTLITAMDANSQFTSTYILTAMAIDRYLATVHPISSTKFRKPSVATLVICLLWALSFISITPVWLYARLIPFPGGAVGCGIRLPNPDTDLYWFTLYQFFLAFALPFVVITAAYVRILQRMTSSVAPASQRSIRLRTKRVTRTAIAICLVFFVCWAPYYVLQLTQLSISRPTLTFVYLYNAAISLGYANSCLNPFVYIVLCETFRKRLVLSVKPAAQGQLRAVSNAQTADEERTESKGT

IC50 | Structure (SMILES)
5.6 nM | CCN(CC)Cc1ccc(NC(=O)c2cc3cc(OCc4ccccc4)ccc3[nH]2)cc1 [Example 1-3, 5-(benzyloxy)-N-{4-[(diethylamino)methyl]phenyl}-1H-indole-2-carboxamide]
4.6 nM | COCCN(C)Cc1ccc(NC(=O)c2cc3cc(OCc4ccccc4)ccc3[nH]2)cc1 [Example 2-10, 5-(benzyloxy)-N-(4-{[(2-methoxyethyl)(methyl)amino]methyl}phenyl)-1H-indole-2-carboxamide]
2.6 nM | O=C(Nc1ccc(CN2CCCC2)cc1)c1cc2cc(OCc3ccccc3)ccc2[nH]1 [Example 2-6, 5-(benzyloxy)-N-[4-(1-pyrrolidinylmethyl)phenyl]-1H-indole-2-carboxamide trifluoroacetate]
9.6 nM | O=C(Nc1ccc(CN2CCOCC2)cc1)c1cc2cc(OCc3ccccc3)ccc2[nH]1 [Example 1-1, 5-(benzyloxy)-N-[4-(morpholinomethyl)phenyl]-1H-indole-2-carboxamide hydrochloride]
